pIC50: −log10 of the molar value. In brackets after ≈: the same amount, converted by molar mass.
Assays:
[1] = Inhibition of HIV RT; set-up: species or system Human immunodeficiency virus
L1210 = experiment: Cytotoxicity against mouse L1210 cells; format: functional, cell-based; conditions: for IC50: Mus musculus, L1210
KB = experiment: Cytotoxicity against human KB cells; format: functional, cell-based

Row | pIC50 [1] | SMILES | IC5 (L1210) | IC50 (KB) | IC50 (L1210)
1 | 6.92 | CCc1nn(CCO)c(CC)c1Oc1cc(C#N)cc(C#N)c1 [LERSIVIRINE] | – | – | –
2 | – | COc1cc([C@@H]2c3cc4c(cc3[C@@H](C#N)[C@H]3COCC23)OCO4)cc(OC)c1OC (stereo not given in full) | 3.48 ng/mL | 0.155 µg/mL (≈ 0.379 µM) | –
3 | – | COc1cc([C@@H]2c3cc4c(cc3[C@@H](C(=O)O)[C@H]3COCC23)OCO4)cc(OC)c1OC (stereo not given in full) | – | 10 µg/mL (≈ 23.3 µM) | 0.164 µg/mL (≈ 0.383 µM)
4 | – | COc1cc([C@@H]2c3cc4c(cc3[C@@H](O[C@@H]3O[C@@H]5CO[C@H](C)O[C@H]5[C@H](O)[C@H]3O)[C@H]3COCC23)OCO4)cc(OC)c1OC (stereo not given in full) | – | 0.308 µg/mL (≈ 0.523 µM) | 0.155 µg/mL (≈ 0.263 µM)
5 | 6.46 | CCc1nn(CCO)c(CC)c1Oc1cccc(C#N)c1 | – | – | –
6 | 6.25 | Cc1c(Oc2cc(Cl)cc(Cl)c2)c(C(C)C)nn1CCO | – | – | –

Row | SMILES | pIC50 [1] | IC5 (L1210) | IC50 (KB) | IC50 (L1210)
7 | CC(C)c1nc(COC(N)=O)n(Cc2ccncc2)c1Sc1cc(Cl)cc(Cl)c1 [CAPRAVIRINE] | 7.03 | – | – | –
